Test results: ChEMBL document CHEMBL1201862, “PubChem BioAssay data set” (2004)
Active and inactive are the calls of the source.

Tests used:
[1] = target: T1, RNA-binding protein pos-1 (Caenorhabditis elegans, UniProt G5EF15); assay: disruptors of C. elegans POS-1 RNA interaction – biochemical, fluorescence polarization, dose response (AID 1964);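 also: purified POS-1 fused to maltose binding protein made in E. coli; potency of compounds blocking POS-1 binding to fluorescent RNA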
T1 sequence (G5EF15 whole entry): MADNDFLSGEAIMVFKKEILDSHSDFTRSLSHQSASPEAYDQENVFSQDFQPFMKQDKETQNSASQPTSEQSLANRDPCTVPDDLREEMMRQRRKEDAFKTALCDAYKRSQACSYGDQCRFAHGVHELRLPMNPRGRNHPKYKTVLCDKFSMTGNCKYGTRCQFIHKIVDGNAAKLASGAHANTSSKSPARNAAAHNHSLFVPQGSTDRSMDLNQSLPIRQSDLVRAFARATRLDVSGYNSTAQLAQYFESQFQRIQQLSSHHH

[2] = target: T2, Zinc finger protein mex-5 (Caenorhabditis elegans, UniProt Q9XUB2); assay: potency of MEX-5 RNA-binding blockers – biochemical, C. elegans, fluorescence polarization, dose response (AID 1960)
T2 sequence (Q9XUB2 whole entry): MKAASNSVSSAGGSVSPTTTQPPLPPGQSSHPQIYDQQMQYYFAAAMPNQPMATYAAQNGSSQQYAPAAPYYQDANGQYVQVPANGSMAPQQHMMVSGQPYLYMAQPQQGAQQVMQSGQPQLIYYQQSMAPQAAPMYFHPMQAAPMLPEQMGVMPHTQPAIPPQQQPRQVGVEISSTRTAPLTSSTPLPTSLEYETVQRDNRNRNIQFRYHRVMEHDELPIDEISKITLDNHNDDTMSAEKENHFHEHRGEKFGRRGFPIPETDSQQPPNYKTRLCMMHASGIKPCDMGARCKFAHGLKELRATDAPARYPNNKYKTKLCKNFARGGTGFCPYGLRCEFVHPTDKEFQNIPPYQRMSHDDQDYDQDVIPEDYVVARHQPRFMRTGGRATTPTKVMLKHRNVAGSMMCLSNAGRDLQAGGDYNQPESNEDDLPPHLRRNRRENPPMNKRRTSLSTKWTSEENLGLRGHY

[3] = target: T3, Replicative DNA helicase DnaB (Mycobacterium tuberculosis, UniProt P9WMR3); assay: DnaB intein splicing inhibitors, dose response, biochemical, cell-free fluorescence (AID 449749); format: functional
T3 sequence (P9WMR3 whole entry): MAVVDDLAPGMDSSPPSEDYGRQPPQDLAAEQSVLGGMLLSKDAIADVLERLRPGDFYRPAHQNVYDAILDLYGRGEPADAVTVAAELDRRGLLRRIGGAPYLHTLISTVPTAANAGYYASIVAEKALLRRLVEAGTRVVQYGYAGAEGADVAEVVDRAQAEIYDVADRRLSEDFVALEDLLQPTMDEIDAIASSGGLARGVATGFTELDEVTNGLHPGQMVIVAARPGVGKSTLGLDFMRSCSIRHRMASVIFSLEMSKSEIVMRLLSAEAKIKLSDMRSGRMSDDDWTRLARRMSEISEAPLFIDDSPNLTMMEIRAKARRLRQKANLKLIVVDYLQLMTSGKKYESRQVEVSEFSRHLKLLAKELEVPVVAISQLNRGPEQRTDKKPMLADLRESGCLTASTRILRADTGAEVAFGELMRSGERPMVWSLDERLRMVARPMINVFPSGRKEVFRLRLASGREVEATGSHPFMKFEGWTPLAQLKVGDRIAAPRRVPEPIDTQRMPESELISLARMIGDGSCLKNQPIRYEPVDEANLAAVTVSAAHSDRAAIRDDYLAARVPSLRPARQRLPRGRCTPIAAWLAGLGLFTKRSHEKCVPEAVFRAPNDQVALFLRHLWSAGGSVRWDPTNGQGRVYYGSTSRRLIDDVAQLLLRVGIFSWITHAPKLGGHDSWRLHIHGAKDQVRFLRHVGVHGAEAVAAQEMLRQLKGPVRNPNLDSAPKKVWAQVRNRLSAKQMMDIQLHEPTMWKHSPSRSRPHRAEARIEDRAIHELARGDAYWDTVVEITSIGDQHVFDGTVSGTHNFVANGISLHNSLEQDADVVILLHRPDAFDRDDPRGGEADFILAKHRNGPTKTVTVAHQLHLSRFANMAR

Protein RecA = target: T4, Protein RecA (Mycobacterium tuberculosis, UniProt P9WHJ3); assay: Fluorescence Cell-Free Homogeneous Dose Retest to Identify Inhibitors of RecA-Intein Splicing Activity. [Related pubchem assays (depositor defined):AID2097, AID2223, AID489010, AID492950]; format: functional
T4 sequence (P9WHJ3 whole entry): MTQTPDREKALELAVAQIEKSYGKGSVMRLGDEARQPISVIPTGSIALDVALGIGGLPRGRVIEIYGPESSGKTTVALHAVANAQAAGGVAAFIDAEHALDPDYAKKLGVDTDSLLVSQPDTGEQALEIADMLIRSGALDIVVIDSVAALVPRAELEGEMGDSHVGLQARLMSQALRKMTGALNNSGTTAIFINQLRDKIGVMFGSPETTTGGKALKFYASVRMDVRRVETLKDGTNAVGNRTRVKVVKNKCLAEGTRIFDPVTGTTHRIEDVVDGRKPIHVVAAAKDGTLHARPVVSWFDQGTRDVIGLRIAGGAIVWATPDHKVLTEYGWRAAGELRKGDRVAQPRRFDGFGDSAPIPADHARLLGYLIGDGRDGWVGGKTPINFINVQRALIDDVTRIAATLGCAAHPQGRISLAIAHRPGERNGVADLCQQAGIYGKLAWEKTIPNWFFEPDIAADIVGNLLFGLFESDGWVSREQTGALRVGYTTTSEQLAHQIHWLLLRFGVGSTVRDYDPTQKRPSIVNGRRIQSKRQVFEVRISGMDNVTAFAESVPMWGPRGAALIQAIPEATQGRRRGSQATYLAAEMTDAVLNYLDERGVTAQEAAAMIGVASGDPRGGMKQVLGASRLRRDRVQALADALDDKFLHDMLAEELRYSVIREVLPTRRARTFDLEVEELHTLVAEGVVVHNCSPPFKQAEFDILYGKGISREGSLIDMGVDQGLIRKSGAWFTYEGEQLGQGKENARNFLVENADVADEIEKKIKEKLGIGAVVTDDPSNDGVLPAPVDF

[4] = target: T5, Rac GTPase-activating protein 1 (Homo sapiens, UniProt Q9H0H5); assay: blockers of MgcRacGAP-driven Rac1 GTP hydrolysis – biochemical, ADP Hunter fluorescence, primary and confirmatory, confirmation (AID 624330); format: functional
T5 sequence (Q9H0H5 whole entry): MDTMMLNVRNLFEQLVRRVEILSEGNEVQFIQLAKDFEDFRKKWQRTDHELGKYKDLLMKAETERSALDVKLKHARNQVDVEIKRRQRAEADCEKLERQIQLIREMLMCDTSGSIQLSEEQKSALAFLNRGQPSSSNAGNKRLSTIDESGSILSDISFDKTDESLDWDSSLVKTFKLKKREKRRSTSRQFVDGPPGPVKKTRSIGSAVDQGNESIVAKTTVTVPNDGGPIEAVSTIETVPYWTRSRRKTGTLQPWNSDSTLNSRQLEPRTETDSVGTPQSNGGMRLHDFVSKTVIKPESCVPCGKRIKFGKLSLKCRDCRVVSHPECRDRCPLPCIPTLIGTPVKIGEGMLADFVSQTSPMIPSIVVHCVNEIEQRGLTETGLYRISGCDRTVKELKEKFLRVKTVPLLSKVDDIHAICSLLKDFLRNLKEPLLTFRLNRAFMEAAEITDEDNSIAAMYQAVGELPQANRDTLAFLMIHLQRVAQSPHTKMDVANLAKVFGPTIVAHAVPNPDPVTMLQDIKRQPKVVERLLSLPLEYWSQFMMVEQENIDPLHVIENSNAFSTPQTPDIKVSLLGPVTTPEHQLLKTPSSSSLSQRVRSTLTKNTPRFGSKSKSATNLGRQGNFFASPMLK

Cytochrome P450 1A2 = target: T6, Cytochrome P450 1A2 (Homo sapiens, UniProt P05177);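 also: PubChem cytochrome P450 panel assay, CYP1A2 panel member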
T6 sequence (P05177 whole entry): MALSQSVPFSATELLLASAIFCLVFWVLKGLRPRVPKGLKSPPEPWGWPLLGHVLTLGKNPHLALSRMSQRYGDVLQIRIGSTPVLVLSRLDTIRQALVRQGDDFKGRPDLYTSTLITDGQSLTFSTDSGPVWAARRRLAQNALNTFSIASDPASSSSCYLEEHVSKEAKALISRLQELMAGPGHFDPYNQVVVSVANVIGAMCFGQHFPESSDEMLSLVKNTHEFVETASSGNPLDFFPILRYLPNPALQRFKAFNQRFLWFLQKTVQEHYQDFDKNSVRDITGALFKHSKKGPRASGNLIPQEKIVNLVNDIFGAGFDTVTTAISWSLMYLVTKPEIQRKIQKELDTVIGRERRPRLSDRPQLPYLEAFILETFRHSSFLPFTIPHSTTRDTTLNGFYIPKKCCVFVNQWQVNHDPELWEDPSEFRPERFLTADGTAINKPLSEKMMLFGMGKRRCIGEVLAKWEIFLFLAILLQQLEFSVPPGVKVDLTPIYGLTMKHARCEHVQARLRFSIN

Cytochrome P450 2C9 = Cytochrome P450 2C9 (Homo sapiens, UniProt P11712)
Sequence of Cytochrome P450 2C9 (P11712 whole entry): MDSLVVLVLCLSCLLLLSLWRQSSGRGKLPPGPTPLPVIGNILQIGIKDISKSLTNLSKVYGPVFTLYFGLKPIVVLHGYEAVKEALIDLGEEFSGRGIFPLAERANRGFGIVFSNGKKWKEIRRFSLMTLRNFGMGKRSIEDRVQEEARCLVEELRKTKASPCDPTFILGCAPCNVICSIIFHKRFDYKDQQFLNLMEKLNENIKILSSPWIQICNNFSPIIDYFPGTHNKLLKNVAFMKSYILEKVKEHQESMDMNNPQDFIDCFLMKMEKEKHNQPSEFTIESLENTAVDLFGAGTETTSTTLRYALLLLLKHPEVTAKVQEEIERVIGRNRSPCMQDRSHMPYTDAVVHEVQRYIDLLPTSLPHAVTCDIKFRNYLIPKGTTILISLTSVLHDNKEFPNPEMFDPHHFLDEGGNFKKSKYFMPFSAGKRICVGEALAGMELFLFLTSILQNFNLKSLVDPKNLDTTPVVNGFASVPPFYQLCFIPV

Cytochrome P450 2D6 = Cytochrome P450 2D6 (Homo sapiens, UniProt P10635);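 also: CYP2D6 member of a cytochrome P450 panel assay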
Sequence of Cytochrome P450 2D6 (P10635 whole entry): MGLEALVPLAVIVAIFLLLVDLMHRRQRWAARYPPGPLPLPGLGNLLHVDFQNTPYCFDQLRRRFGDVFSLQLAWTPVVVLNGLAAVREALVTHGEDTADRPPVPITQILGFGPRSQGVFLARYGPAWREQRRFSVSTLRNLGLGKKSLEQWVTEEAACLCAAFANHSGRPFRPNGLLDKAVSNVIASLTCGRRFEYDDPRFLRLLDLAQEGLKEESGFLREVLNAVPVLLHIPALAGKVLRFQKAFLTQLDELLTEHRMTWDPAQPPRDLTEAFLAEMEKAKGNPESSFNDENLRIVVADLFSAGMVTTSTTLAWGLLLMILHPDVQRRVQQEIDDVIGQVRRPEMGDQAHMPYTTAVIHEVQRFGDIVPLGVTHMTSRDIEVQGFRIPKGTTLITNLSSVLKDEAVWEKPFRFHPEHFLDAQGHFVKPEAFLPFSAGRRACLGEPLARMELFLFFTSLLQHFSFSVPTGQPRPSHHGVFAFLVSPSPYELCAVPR

Cytochrome P450 3A4 = Cytochrome P450 3A4 (Homo sapiens, UniProt P08684);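 also: CYP3A4 tested as one member of a cytochrome P450 panel screen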
Sequence of Cytochrome P450 3A4 (P08684 whole entry): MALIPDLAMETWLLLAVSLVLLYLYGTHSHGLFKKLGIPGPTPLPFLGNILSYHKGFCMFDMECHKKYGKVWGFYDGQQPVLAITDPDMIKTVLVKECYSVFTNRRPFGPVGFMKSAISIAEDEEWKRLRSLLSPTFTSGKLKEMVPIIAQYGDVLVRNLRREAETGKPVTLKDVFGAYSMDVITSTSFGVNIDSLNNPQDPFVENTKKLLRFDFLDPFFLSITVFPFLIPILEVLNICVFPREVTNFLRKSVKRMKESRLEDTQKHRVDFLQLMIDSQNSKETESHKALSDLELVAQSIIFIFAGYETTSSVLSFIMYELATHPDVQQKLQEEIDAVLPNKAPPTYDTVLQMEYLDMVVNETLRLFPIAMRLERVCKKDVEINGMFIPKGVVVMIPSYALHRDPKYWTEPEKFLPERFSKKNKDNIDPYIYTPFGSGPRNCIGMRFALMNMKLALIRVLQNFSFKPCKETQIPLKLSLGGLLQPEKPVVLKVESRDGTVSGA

[5] = Luminescence Cell-Based Dose Retest to Confirm Inhibitors of Cancer Stem Cells. [Related pubchem assays (depositor defined):AID2717, AID2721]; format: functional; settings: Homo sapiens
H4 = assay: Luminescence Cell-Based Dose Response HTS to Identify Activators of 5'UTR Stem-Loop Driven Prion Protein mRNA Translation in H4 Neuroglioblastoma Cells. [Related pubchem assays: 1829 (Project Summary), 1814 (Primary HTS)]; format: functional; settings: Homo sapiens

| Compound | EC50 [1] | EC50 [2] | AC50 [3] | EC50 (Protein RecA) | further results |
| --- | --- | --- | --- | --- | --- |
| CC(C)(C)N=C(S)NCCc1ccccc1 | > 300 µM (inconclusive) | > 300 µM (not active) | – | – | – |
| CC1=NN(Cc2ccccc2)C(=O)C1 | – | – | 5.61 µM (active) | 1.88 µM (active) | – |
| N#CC(C#N)=Cc1ccc(NC(=O)c2ccc(Br)cc2)cc1 | > 300 µM (not active) | > 300 µM (not active) | – | – | – |
| N#C/C(=C/c1ccc2c(c1)OCO2)C(=O)Nc1ccc(O)cc1 | – | – | 19 µM (active) | 3.64 µM (active) | IC50 [4]: 55.4 µM (active) |
| O=C(O)c1cccc(SSc2cccc(C(=O)O)c2)c1 | – | – | – | – | AC50 (Cytochrome P450 1A2): 5.01 µM (inconclusive); AC50 (Cytochrome P450 2C9): 2 µM (inconclusive) |
| Cc1ccc(-c2ccc(CCC(=O)O)n2-c2cccc(C(=O)O)c2)cc1 | > 300 µM (not active) | > 300 µM (not active) | – | – | – |
| CCc1n[nH]c2c1C(c1cccnc1)C(C#N)=C(N)O2 (stereo not given) | – | – | 24.4 µM (inconclusive) | 11.5 µM (active) | – |
| CC1(C)CC(=O)C2=C(C1)OC(N)=C(C#N)[C@@]21C(=O)N(CC(N)=O)c2ccccc21 | > 300 µM (not active) | > 300 µM (not active) | – | – | – |
| COc1cc(NC(=O)c2cc(Cl)ccc2Cl)ccc1-c1cc2ccccc2oc1=O | – | – | – | – | AC50 (Cytochrome P450 2D6): 25.1 µM (inconclusive); AC50 (Cytochrome P450 1A2): 12.6 µM (inconclusive); AC50 (Cytochrome P450 3A4): 1 µM (inconclusive) |
| N#Cc1cccc(NC(=O)N2CCCC3(CCN(C(=O)c4cnccn4)CC3)C2)c1 | – | – | – | – | AC50 (Cytochrome P450 1A2): 20 µM (inconclusive); AC50 (Cytochrome P450 3A4): 15.8 µM (inconclusive) |
| Cc1ccc(Nc2cc(C)nc3c(C)ccc([N+](=O)[O-])c23)cc1 | – | – | > 120 µM (inactive) | 2.34 µM (active) | – |
| Cc1cc(C)cc(N2C(=O)/C(=C/Nc3ccc(N4CCOCC4)cc3)C(=O)NC2=S)c1 | 7.92 µM (active) | 5.42 µM (inconclusive) | – | – | – |
| CCCCCc1cc(=O)oc2c(C(CCN3CCCC(C)C3)c3ccc4c(c3)OCO4)c(OC)cc(OC)c12 (stereo not given) | – | – | 5.31 µM (active) | 11.6 µM (active) | AC50 [5]: 6.14 µM (active) |
| CS(=O)(=O)c1ccc(C(=O)OCc2nnc(-c3ccc(Cl)cc3)o2)cc1[N+](=O)[O-] | – | – | 2.2 µM (active) | 1.42 µM (active) | – |
| Cc1ccc(C(=O)Nc2nc3ccccc3n2CCN2CCCC2)cc1 | – | – | – | – | EC50 (H4): 10.9 µM (active) |
| CC1(OC(=O)C2CCCC2)C(=O)C=C2C=C(c3ccsc3)OC=C2C1=O (stereo not given) | 47.8 µM (active) | 37.1 µM (active) | – | – | – |
| O=C1OCc2cc(-n3cccc3)ccc21 | > 300 µM (not active) | > 300 µM (not active) | – | – | – |
| O=C(C1CCN(S(=O)(=O)c2cccc3nsnc23)CC1)N1CCn2c1nc1ccccc12 | – | – | – | – | AC50 (Cytochrome P450 2D6): 17.8 µM (inconclusive); AC50 (Cytochrome P450 1A2): 20 µM (inconclusive); AC50 (Cytochrome P450 2C9): 25.1 µM (inconclusive) |
| CCOC(=O)C1Nc2ccc(OC(F)(F)F)cc2C2C=CCC12 (stereo not given) | > 300 µM (not active) | > 300 µM (not active) | – | – | – |
| COc1ccc(C(=O)/C=C/c2ccc(N3CCCCC3)c([N+](=O)[O-])c2)c(OC)c1 | > 300 µM (not active) | > 300 µM (not active) | – | – | AC50 [5]: 4.31 µM (active) |
| Cc1sc2nc(SCc3nc(-c4cccs4)no3)n(-c3ccccc3)c(=O)c2c1C | – | – | – | – | AC50 (Cytochrome P450 1A2): 14.1 µM (inconclusive); AC50 (Cytochrome P450 2C9): 0.501 µM (inconclusive) |
| Cc1cccc(NC(=O)/C(C#N)=C\c2cc(C)n(-c3ccc(C(=O)O)cc3)c2C)c1 | 84 µM (active) | > 300 µM (not active) | – | – | – |
| CCCc1n[nH]c2c1C(c1ccc(OC)c(Cn3nnc4ccccc43)c1)C(C#N)=C(N)O2 (stereo not given) | – | – | 19.7 µM (active) | 0.283 µM (active) | – |
